Source: patent US7935699B2, “Pyrazole glucokinase activators” (Hoffmann-La Roche Inc., priority 2006, dated 2011)

These molecules were tested on Diet-Induced Obese (DIO) C57BL/6J mice (assay: Glucokinase activator in vivo screen, blood glucose in DIO mice). Settings: Mus musculus; 2 hours post 25 mg/kg oral dose in DIO mice, vs control; read-out: % gluc @ 2 H (% glucose lowering vs control).
Protocol: Glucokinase Activator in vivo Screen Protocol in Lean and Diet Induced Obese Mice: Lean or Diet-Induced Obese (DIO) C57BL/6J mice were orally dosed via gavage with Glucokinase (GK) activator (50 mg/kg body weight for lean mice, 25 mg/kg body weight for DIO mice) following a two hour fasting period. Blood glucose determinations were made four times during the six hour post-dose study period.
C57Bl/6J mice were obtained from Jackson Laboratory (Bar Harbor, Me.) and were maintained in a light-dark cycle with lights on from 0600-1800 hr. For studies in lean mice, the mice were received at age six weeks and given ad libitum access to control diet (LabDiet 5001 chow, PMI Nutrition, Brentwood, Mo.), and were at least age 11 weeks at the time of study. For studies in the DIO model, the mice were received at age five weeks and given ad libitum access to Bio-Serv F3282 High Fat Diet (Frenchtown, N.J.), and were at least age 16 weeks at the time of study. The experiments were conducted during the light phase of the light-dark cycle. Mice (n=6) are weighed and fasted for a two hour period prior to oral treatment. GK activators are formulated in Gelucire vehicle (Ethanol:Gelucire44/14:PEG400q.s. 4:66:30 v/w/v. For studies in lean mice, the mice were dosed orally with 5.0 μL per gram of body weight with 5 ml/kg×10.0 mg/ml formulation to equal a 50 mg/kg dose. For studies in DIO mice, the mice were dosed orally with 5.0 μL per gram of body weight with […] formulation to equal a 25 mg/kg dose. Immediately prior to dosing, a pre-dose (time zero) blood glucose reading was acquired by snipping off a small portion of the animal's tail (˜1 mm) and collecting 15 μL blood into a heparinized capillary tube for analysis. Following GK activator administration, additional blood glucose readings were taken at 2, 4 and 6 hours post dose from the same tail wound. Results were interpreted by comparing the mean blood glucose values of six vehicle treated mice with six GK activator treated mice over the six hour study duration.

| SMILES | change in vivo at 25 mg/kg [%] |
| --- | --- |
| CS(=O)(=O)c1ccc([C@@H](CC2CCCC2)C(=O)Nc2ccn(CC(=O)N3CCOCC3)n2)cc1Cl [Example 7, 2(R)-(3-Chloro-4-methanesulfonyl-phenyl)-3-cyclopentyl-N-[1-(2-morpholin-4-yl-2-oxo-ethyl)-1H-pyrazol-3-yl]-propionamide] | -15.3 |
| CCS(=O)(=O)n1ccc(NC(=O)[C@H](CC2CCCC2)c2ccc(S(C)(=O)=O)c(Cl)c2)n1 [Example 33, 2(R)-(3-Chloro-4-methanesulfonyl-phenyl)-3-cyclopentyl-N-(1-ethanesulfonyl-1H-pyrazol-3-yl)-propionamide] | -9.8 |
| CS(=O)(=O)c1ccc([C@@H](CC2CCCC2)C(=O)Nc2ccn(C[C@@H](O)CO)n2)cc1Cl [Example 35, 2-(R)-(3-Chloro-4-methanesulfonyl-phenyl)-3-cyclopentyl-N-[1-((R)-2,3-dihydroxy-propyl)-1H-pyrazol-3-yl]-propionamide] | -33.2 |
| CS(=O)(=O)c1ccc([C@@H](CC2CCCC2)C(=O)Nc2ccn(CC3(O)CC3)n2)cc1Cl [Example 73, 2-(R)-(3-Chloro-4-methanesulfonyl-phenyl)-3-cyclopentyl-N-[1-(1-hydroxy-cyclopropylmethyl)-1H-pyrazol-3-yl]-propionamide] | -48.5 |
| Cc1cc([C@@H](CC2CCCC2)C(=O)Nc2ccn(CCO)n2)ccc1S(C)(=O)=O [Example 78, 3-Cyclopentyl-N-[1-(2-hydroxy-ethyl)-1H-pyrazol-3-yl]-2(R)-(4-methanesulfonyl-3-methyl-phenyl)-propionamide] | -26.7 |
| COCCn1ccc(NC(=O)[C@H](CC2CCCC2)c2ccc(S(C)(=O)=O)c(C)c2)n1 [Example 81, 3-Cyclopentyl-2(R)-(4-methanesulfonyl-3-methyl-phenyl)-N-[1-(2-methoxy-ethyl)-1H-pyrazol-3-yl]-propionamide] | -31.4 |
| Cc1cc([C@@H](CC2CCCC2)C(=O)Nc2ccn(CCCO)n2)ccc1S(C)(=O)=O [Example 82, 3-Cyclopentyl-N-[1-(3-hydroxy-propyl)-1H-pyrazol-3-yl]-2(R)-(4-methanesulfonyl-3-methyl-phenyl)-propionamide] | -38.3 |
| COCCn1ccc(NC(=O)[C@H](CC2CCCC2)c2cccc(C(F)(F)F)c2)n1 [Example 84, 3-Cyclopentyl-N-[1-(2-methoxy-ethyl)-1H-pyrazol-3-yl]-2(R)-(3-trifluoromethyl-phenyl)-propionamide] | -24.5 |

Each molecule was assayed against T1, Recombinant human liver GK1 (GST-GK) (Homo sapiens, UniProt P35557) (assay: Glucokinase in vitro assay (G6PDH-coupled, NADH at OD340)). Settings: 25° C., 5 mM D-glucose, 10% DMSO, GST-GK.
T1 construct: made in house; host or cells: E. coli
T1 sequence (P35557 1-466 isoform P35557-2): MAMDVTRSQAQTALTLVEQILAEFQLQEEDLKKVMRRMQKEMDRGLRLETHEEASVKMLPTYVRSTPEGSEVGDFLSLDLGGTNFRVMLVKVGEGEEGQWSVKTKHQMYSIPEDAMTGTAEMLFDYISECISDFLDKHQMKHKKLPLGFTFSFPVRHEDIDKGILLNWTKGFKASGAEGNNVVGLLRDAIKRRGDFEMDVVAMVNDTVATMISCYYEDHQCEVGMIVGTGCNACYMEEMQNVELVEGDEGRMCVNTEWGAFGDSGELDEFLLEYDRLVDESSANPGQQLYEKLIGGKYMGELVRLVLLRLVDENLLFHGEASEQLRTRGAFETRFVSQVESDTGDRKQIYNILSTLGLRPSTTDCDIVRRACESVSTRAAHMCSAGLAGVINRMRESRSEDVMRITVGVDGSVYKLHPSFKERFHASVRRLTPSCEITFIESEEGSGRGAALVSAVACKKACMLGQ
Format: biochemical
Protocol: Glucokinase In Vitro Assay Protocol: Glucokinase (GK) was assayed by coupling the production of glucose-6-phosphate to the generation of NADH with glucose-6-phosphate dehydrogenase (G6PDH, 0.75-1 kunits/mg; Boehringer Mannheim, Indianapolis, Ind.) from Leuconostoc mesenteroides as the coupling enzyme (Scheme 2).
Recombinant human liver GK1 was expressed in E. coli as a glutathione S-transferase fusion protein (GST-GK) [Liang et al, 1995] and was purified by chromatography over a glutathione-Sepharose 4B affinity column using the procedure provided by the manufacturer (Amersham Pharmacia Biotech, Piscataway, N.J.).
The assay was conducted at 25° C. in a flat bottom 96-well tissue culture plate from Costar (Cambridge, Mass.) with a final incubation volume of 120 μL. The incubation reaction contained the following: 25 mM Hepes buffer (pH 7.1), 25 mM KCl, 5 mM D-glucose, 1 mM ATP, 1.8 mM NAD, 2 mM MgCl2, 1 μM sorbitol-6-phosphate, 1 mM dithiothreitol, test drug or 10% DMSO, 1.8 unit/ml G6PDH, and GK (see below). All organic reagents were >98% pure and were from Boehringer Mannheim with the exceptions of D-glucose and Hepes which were from Sigma Chemical Co, St Louis, Mo. Test compounds were dissolved in DMSO and were added to the incubation reaction minus GST-GK in a volume of 12 μL to yield a final DMSO concentration of 10%. This mix was pre-incubated in the temperature controlled chamber of a SPECTRAmax 250 microplate spectrophotometer (Molecular Devices Corporation, Sunnyvale, Calif.) for 10 minutes to allow temperature equilibrium and then the reaction was started by the addition of 20 μL GST-GK.
After addition of enzyme, the increase in optical density (OD) at 340 nm was monitored over a 10 minute incubation period as a measure of GK activity. Sufficient GST-GK was added to produce an increase in OD340 of 0.08 to 0.1 units over the 10 minute incubation period in wells containing 10% DMSO but no test compound. Preliminary experiments established that the GK reaction was linear over this period of time even in the presence of activators that produced a 5-fold increase in GK activity. The GK activity in control wells was compared with the activity in wells containing test GK activators, and the concentration of activator that produced a 50% increase in the activity of GK, i.e., the SC1.5, was calculated.

| SC1.5 (concentration of activator that produced a 50% increase in the activity of GK) [µM] | SMILES |
| --- | --- |
| 5.3 | CS(=O)(=O)c1ccc([C@@H](CC2CCOCC2)C(=O)Nc2ccn(CCO)n2)cc1Cl (single isomer, unassigned) [Example 76] |
| 0.28 | CS(=O)(=O)c1ccc([C@@H](CC2CCCC2)C(=O)Nc2cc[nH]n2)cc1Cl [Example 2, 2(R)-(3-Chloro-4-methanesulfonyl-phenyl)-3-cyclopentyl-N-(1H-pyrazol-3-yl)-propionamide] |
| 0.2 | CC(C)(C)OC(=O)CCn1ccc(NC(=O)[C@H](CC2CCCC2)c2ccc(S(C)(=O)=O)c(Cl)c2)n1 [Example 8, 3-{3-[2(R)-(3-Chloro-4-methanesulfonyl-phenyl)-3-cyclopentyl-propionylamino]-pyrazol-1-yl}-propionic acid tert-butyl ester] |
| 0.45 | CCCNC(=O)CCn1ccc(NC(=O)[C@H](CC2CCCC2)c2ccc(S(C)(=O)=O)c(Cl)c2)n1 [Example 11, 2(R)-(3-Chloro-4-methanesulfonyl-phenyl)-3-cyclopentyl-N-[1-(2-propylcarbamoyl-ethyl)-1H-pyrazol-3-yl]-propionamide] |
| 0.083 | CS(=O)(=O)c1ccc([C@@H](CC2CCCC2)C(=O)Nc2ccn(Cc3ccccc3)n2)cc1Cl [Example 24, N-(1-Benzyl-1H-pyrazol-3-yl)-2(R)-(3-chloro-4-methanesulfonyl-phenyl)-3-cyclopentyl-propionamide] |
| 0.061 | COC(=O)c1ccc(Cn2ccc(NC(=O)[C@H](CC3CCCC3)c3ccc(S(C)(=O)=O)c(Cl)c3)n2)cc1 [Example 44, 4-{3-[2-(R)-(3-Chloro-4-methanesulfonyl-phenyl)-3-cyclopentyl-propionylamino]-pyrazol-1-ylmethyl}-benzoic acid methyl ester] |
| 0.03 | COCCCNC(=O)c1ccc(Cn2ccc(NC(=O)[C@H](CC3CCCC3)c3ccc(S(C)(=O)=O)c(Cl)c3)n2)cc1 [Example 47, 4-{3-[2-(R)-(3-Chloro-4-methanesulfonyl-phenyl)-3-cyclopentyl-propionylamino]-pyrazol-1-ylmethyl}-N-(3-methoxy-propyl)-benzamide] |
| 0.13 | CC(C)n1ccc(NC(=O)[C@H](CC2CCCC2)c2ccc(S(C)(=O)=O)c(Cl)c2)n1 [Example 56, 2-(R)(3-Chloro-4-methanesulfonyl-phenyl)-3-cyclopentyl-N-(1-isopropyl-1H-pyrazol-3-yl)-propionamide] |
| 1.433 | O=C(Nc1ccn(CCO)n1)[C@H](CC1CCCC1)c1cccc(C(F)(F)F)c1 [Example 79, 3-Cyclopentyl-N-[1-(2-hydroxy-ethyl)-1H-pyrazol-3-yl]-2(R)-(3-trifluoromethyl-phenyl)-propionamide] |

Same assay, conditions: qualitative statement

| glucokinase activation (in words) | SMILES |
| --- | --- |
| active | CS(=O)(=O)c1ccc([C@@H](CC2CCOCC2)C(=O)Nc2ccn(CCO)n2)cc1Cl (single isomer, unassigned) [Example 76] |
| active | CC(C)(O)Cn1ccc(NC(=O)[C@H](CC2CCOCC2)c2ccc(Cl)c(Cl)c2)n1 (single isomer, unassigned) [Example 88] |
| active | CC(C)(O)Cn1ccc(NC(=O)[C@H](CC2COC2)c2ccc(S(C)(=O)=O)c(Cl)c2)n1 (single isomer, unassigned) [Example 92] |
| active | CC(C)(O)Cn1ccc(NC(=O)[C@H](CC2CCOCC2)c2ccc(S(C)(=O)=O)c(Cl)c2)n1 [Example 90, 2(R)-(3-Chloro-4-methanesulfonyl-phenyl)-N-[1-(2-hydroxy-2-methyl-propyl)-1H-pyrazol-3-yl]-3-(tetrahydro-pyran-4-yl)-propionamide] |
